Columns and labels:
[1] = target: T1, "5-HT1 -like" receptor (dog isolated saphenous vein strip) (Canis lupus familiaris, UniProt P79250); assay: contraction of dog isolated saphenous vein strip (5-HT1-like receptor agonist activity); assay type: cell-based; settings: in vitro; for RELATIVE POTENCY EC50 (compound)/EC50 (5-HT): ratio to 5-HT; for EC50: read-out: EC50 (concentration of compound which causes 50% of the maximum contraction effected by it)
T1 construct: contracting the isolated dog saphenous vein strip; from tissue; host or cells: dog isolated saphenous vein strip
Experimental: The in vitro evaluation of the "5-HT1 -like" receptor agonist activity of the compounds of the invention is carried out by testing the extent to which they mimic sumatriptan in contracting the isolated dog saphenous vein strip (P. P. A. Humphrey et al., Brit. J. Pharmacol., 1988, 94, 1123).
The following Table illustrates the in vitro activities for a range of the Compounds of the invention on dog isolated saphenous vein strip. EC50 represents the concentration of compound which causes 50% of the maximum contraction effected by it.

conscious dogs = assay: acute toxicity in conscious dogs; assay type: in vivo, dog; settings: doses of up to 1 mg/Kg i.v.
[2] = system: carotid vascular resistance / carotid arterial blood flow; settings: anaesthetized dog; cited from earlier work
[3] = target: T1, "5-HT1 -like" receptor (dog isolated saphenous vein strip); settings: effect of sumatriptan-like contraction blocked by a known 5-HT antagonist; cited from earlier work

T1 sequence (P79250 whole entry): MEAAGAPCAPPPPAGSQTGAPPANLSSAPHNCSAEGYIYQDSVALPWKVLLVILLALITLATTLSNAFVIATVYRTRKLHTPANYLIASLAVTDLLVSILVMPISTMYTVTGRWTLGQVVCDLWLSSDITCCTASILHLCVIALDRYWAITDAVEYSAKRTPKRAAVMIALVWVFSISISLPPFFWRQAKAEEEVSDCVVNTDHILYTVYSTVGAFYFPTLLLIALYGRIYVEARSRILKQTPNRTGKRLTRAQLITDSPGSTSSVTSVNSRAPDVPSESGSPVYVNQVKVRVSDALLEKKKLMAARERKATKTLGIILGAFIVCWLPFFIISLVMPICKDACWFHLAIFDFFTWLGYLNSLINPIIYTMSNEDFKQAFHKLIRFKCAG

CCS(=O)(=O)CCc1ccc2[nH]cc(C[C@H]3CCCN3C(C)c3ccccc3)c2c1 (mixture of isomers) [Example 13, 5-(2-Ethylsulphonylethyl)-3-{N-(1(R,S)-phenylethyl]-2(R)-pyrrolidinylmethyl}-1H-indole]
RELATIVE POTENCY EC50 (compound)/EC50 (5-HT) [1]: 1.4 | EC50 [1]: 71 nM | signs of adverse acute toxicity (conscious dogs): no signs of adverse acute toxicity

CCS(=O)(=O)CCc1ccc2[nH]cc(C[C@H]3CCCN3CC[S+]([O-])c3ccccc3)c2c1 (single isomer, unassigned) [Example 37A]
RELATIVE POTENCY EC50 (compound)/EC50 (5-HT) [1]: 4.6 | EC50 [1]: 290 nM

CCS(=O)(=O)CCc1ccc2[nH]cc(C[C@H]3CCCN3Cc3ccccn3)c2c1 [Example 1, 5-(2-Ethylsulphonylethyl)-3-[N-[2-pyridylmethyl)-2(R)-pyrrolidinylmethyl]-1H-indole]
RELATIVE POTENCY EC50 (compound)/EC50 (5-HT) [1]: 9.4 | EC50 [1]: 430 nM

CCS(=O)(=O)CCc1ccc2[nH]cc(C[C@H]3CCCN3CCOC)c2c1 [Example 4, 5-(2-Ethylsulphonylethyl)-3-[N-(2-methoxyethyl)-2-(R)-pyrrolidinylmethyl]-1H-indole]
RELATIVE POTENCY EC50 (compound)/EC50 (5-HT) [1]: 2.3 | EC50 [1]: 120 nM

CCS(=O)(=O)CCc1ccc2[nH]cc(C[C@H]3CCCN3CC=C(C)C)c2c1 [Example 8, 5-(2-Ethylsulphonylethyl)-3-[N-(3-methyl-2-butenyl)-2(R)-pyrrolidinylmethyl]-1H-indole]
RELATIVE POTENCY EC50 (compound)/EC50 (5-HT) [1]: 2.5 | EC50 [1]: 190 nM | signs of adverse acute toxicity (conscious dogs): no signs of adverse acute toxicity

CCS(=O)(=O)CCc1ccc2[nH]cc(C[C@H]3CCCN3C3CCCC3)c2c1 [Example 9, 3-(N-Cyclopentyl-2(R)-pyrrolidinylmethyl)-5-(2-ethylsulphonylethyl)-1H-indole]
RELATIVE POTENCY EC50 (compound)/EC50 (5-HT) [1]: 1.8 | EC50 [1]: 82 nM

O=S(=O)(CCc1ccc2[nH]cc(C[C@H]3CCCN3C3CCCC3)c2c1)c1ccccc1 [Example 21, 3-(N-Cyclopentyl-2(R)-pyrrolidinylmethyl)-5-(2-phenylsulphonylethyl)-1H-indole]
RELATIVE POTENCY EC50 (compound)/EC50 (5-HT) [1]: 4.9 | EC50 [1]: 560 nM

CCS(=O)(=O)CCc1ccc2[nH]cc(C[C@H]3CCCN3CCO)c2c1 [Example 26, 5-(2-Ethylsulphonylethyl)-3-[N-(2-hydroxyethyl)-2(R)pyrrolidinylmethyl]-1H-indole]
RELATIVE POTENCY EC50 (compound)/EC50 (5-HT) [1]: 3.8 | EC50 [1]: 160 nM

CCS(=O)(=O)CCc1ccc2[nH]cc(C[C@H]3CCCN3CCC(C)=O)c2c1 [Example 31, 5-(2-Ethylsulphonylethyl)-3-[N-{3-oxo-1-butyl)-2(R)-pyrrolidinylmethyl]-1H-indole]
RELATIVE POTENCY EC50 (compound)/EC50 (5-HT) [1]: 1.9 | EC50 [1]: 31 nM

CCS(=O)(=O)CCc1ccc2[nH]cc(C[C@H]3CCCN3CCC(N)=O)c2c1 [Example 34]
RELATIVE POTENCY EC50 (compound)/EC50 (5-HT) [1]: 1.4 | EC50 [1]: 62 nM

CCS(=O)(=O)CCc1ccc2[nH]cc(C[C@H]3CCCN3CCc3ccccn3)c2c1 [Example 36]
RELATIVE POTENCY EC50 (compound)/EC50 (5-HT) [1]: 11.0 | EC50 [1]: 290 nM

CC(=O)CCN1CCC[C@@H]1Cc1c[nH]c2ccc(CCS(=O)(=O)c3ccccc3)cc12 [Example 38, 3-[N-(3-Oxo-1-butyl)-2-(R)-pyrroldinylmethyl]-5-(2phenylsulphonylethyl)-1H-indole]
RELATIVE POTENCY EC50 (compound)/EC50 (5-HT) [1]: 3.4 | EC50 [1]: 440 nM

NS(=O)(=O)C=Cc1ccc2[nH]cc(C[C@H]3CCCN3CC3CC3)c2c1 [Example 44, 3-(N-Cyclopropylmethyl-2(R)-pyrrolidinomethyl)-5-(2-sulphamoylethenyl)-1H-indole]
RELATIVE POTENCY EC50 (compound)/EC50 (5-HT) [1]: 2.7 | EC50 [1]: 180 nM

CNS(=O)(=O)Cc1ccc2[nH]cc(CCN(C)C)c2c1 [Sumatriptan]
carotid arterial blood flow [2]: consequent decrease

CSc1ccc2c(c1)C(N1CCN(C)CC1)Cc1ccccc1S2 (stereo not drawn) [methiothepin]
blockade of contraction of dog saphenous vein strip [3]: can be blocked
